As a reminder, the IC50 is the point on the concentration scale where inhibition reaches its midpoint. What is called GI50 is the concentration that inhibits growth by half. A high value points to lower sensitivity of the cells.

Results on 11 molecules are retold here after patent US12053459B2, “CDK2 inhibitors and methods of using the same” (Cedilla Therapeutics, Inc., priority 2021, dated 2024).

For assay [1], the target named is T1, CDK2/Cyclin E1(14-475) (Homo sapiens, UniProt P24941). Description: Caliper LabChip EZ Reader mobility shift assay, inhibition of CDK2/Cyclin E1 activity. The class given is biochemical. Conditions: class symbols A-D. In short, it runs like this:
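CDK2/Cyclin E1(14-475) pre-incubated 30 min with compound and ATP, then reaction started with 5-FAM-QSPKKG-CONH2; final 2.5 nM enzyme, 100 μM ATP, 1.5 μM peptide, HEPES pH 7.5. Stopped with EDTA after 100 min; substrate/product conversion by capillary electrophoresis mobility shift, IC50 from four-parameter fit.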

For assay [2], the system named is Kuramochi cells. Description: BrdU cell proliferation assay (colorimetric ELISA), Kuramochi cells. Conditions: class symbols A-D. It is filed as cell-based. In short, it runs like this:
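Kuramochi cells (2,000/well, with Kuramochi RB^KO cells as a specificity control) were treated with a 4-point, 3-fold dilution series made from 10 mM compound stocks and left for 4 days at 37 °C. Proliferation was measured by 1 h BrdU labelling, then anti-BrdU peroxidase ELISA read at 450 nm. Signals were background-subtracted and normalized to DMSO wells.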
In general terms: In an ELISA, binding on a coated surface is turned into a signal by an enzyme label.

The test system of assay [3] is Kuramochi cells. Put plainly: Incucyte cell proliferation assay, Kuramochi cells labeled with mApple-H2B. It is filed as cell-based. As to conditions: class symbols A-D. The protocol:
Kuramochi cells labeled with mApple-H2B and Kuramochi RB1−/− cells labeled with NucLight green (Sartorius, 4475) were co-plated on 384-well assay-ready plates along with test compounds at varying concentrations. Plates were placed in the IncuCyte® Sartorius and scanned at 0 and 72 hours. IncuCyte® software was used to count the number of fluorescent nuclei in each well. The fold change in cell count from 0 to 72 hours in wells treated with increasing compounds concentrations (10 pts, ½ log dilution, 20 uM top concentration) was normalized to DMSO control wells. The normalized cell counts were fit with dose response curves and a GI50 was calculated.

For assay [4], the target named is T1, CDK2/Cyclin E1(14-475). Description: HotSpot kinase inhibition assay (radiometric, Reaction Biology Corporation). Conditions: 10 μM ATP, class symbols A-D. It is filed as biochemical. On the procedure:
Inhibition of a select panel of CDK2/CCNE1 activities in the presence of compounds of the present disclosure was evaluated using the HotSpot™ assay (proprietary to Reaction Biology Corporation). In the assay, activated CDK2/Cyclin E1 catalyzes the transfer of radioactive phosphate to amino acid residues of peptide or protein substrates, which are detected radiometrically. […] Reactions contained 20 mM HEPES pH 7.5, 10 mM MgCl2, 1 mM EGTA, 2 mM DTT, 0.02% Brij35, 0.02 mg/mL BSA, 0.1 mM Na3VO4, 1% DMSO, 1.5 nM CDK2/Cyclin E1(14-475), 10 μM ATP, and 20 μM Histone H1 protein isolated from calf thymus (Sigma).
CDK2/Cyclin E1 […] and Histone H1 were mixed in reaction buffer. To this mixture, was added dose titrations of inhibitor compounds in 100% DMSO by acoustic transfer. The compound mixtures were incubated for 20 minutes, then the kinase reactions were initiated by the addition of a mixture of ATP and ^33P ATP for final concentrations of 10 μM total ATP, 20 μM Histone H1, and 1.5 nM CDK2/Cyclin E1 (14-475). The reactions were carried out for 120 minutes, then spotted on a P81 ion exchange filter paper, and extensively washed with 0.75% phosphoric acid. The resulting radioactive counts were normalized to yield % activity, plotted against compound concentration, and fit to a four-parameter equation to determine the IC50 for each compound.

With `CNC(=O)C(NC(=O)C1CN(C(=O)Cc2c[nH]c3cc(Cl)ccc23)CC2CN(C(=O)c3ccc(OC(C)C)c(OC)c3)CC21)[C@H](C)OCc1ccccc1` (single isomer, unassigned) [I-145], the results for the IC50 on CDK2/Cyclin E1(14-475) [1] and with Kuramochi cells [2] were ≤ 0.5 µM and 0.5 to 5 µM, respectively. This molecule also returned a GI50 in the assay on Kuramochi cells [3] (72 h) of 1 to 10 µM.
Regarding `CNC(=O)[C@@H](NC(=O)C1CN(C(=O)Cc2c[nH]c3cc(Cl)ccc23)CC2CN(C(=O)c3ccc(OC(C)C)c(OC)c3)CC21)[C@H](C)OCc1ccccc1` (single isomer, unassigned) [I-146], the values for the IC50 on CDK2/Cyclin E1(14-475) [1] and in the assay with Kuramochi cells [2] were ≤ 0.5 µM and > 10 µM, respectively. Moreover, in the assay on Kuramochi cells [3] (72 h), the GI50 fell in the range of 10 to 20 µM.
As to `CNC(=O)[C@@H](NC(=O)C1CN(C(=O)Cc2c[nH]c3cc(Cl)ccc23)CC2CN(C(=O)c3ccc(OC(C)C)c(OC)c3)CC21)[C@H](C)OCc1ccccc1` (single isomer, unassigned) [I-147], the IC50 on CDK2/Cyclin E1(14-475) [1] and in the assay on Kuramochi cells [2] was > 10 µM in each case. Besides, the GI50 with Kuramochi cells [3] (72 hours) was > 20 µM.
Regarding `CNC(=O)[C@@H](NC(=O)C1CN(C(=O)Cc2c[nH]c3cc(Cl)ccc23)CC2CN(C(=O)c3ccc(OC(C)C)c(OC)c3)CC21)[C@H](C)OCc1ccccc1` (single isomer, unassigned) [I-148], the IC50 was 0.5 to 5 µM on CDK2/Cyclin E1(14-475) [1] and > 10 µM with Kuramochi cells [2]. The GI50 in the assay on Kuramochi cells [3] (72 hours) is > 20 µM.
Consider `COc1cc(C(=O)N2CC3CN(C(=O)Cc4c[nH]c5cc(Cl)ccc45)CC(C(=O)NCc4ccc(C)nn4)C3C2)ccc1OC(C)C` (single isomer, unassigned) [I-261], for which, at CDK2/Cyclin E1(14-475) [1], the IC50 is > 10 µM. Besides, the GI50 with Kuramochi cells [3] (72 h) was > 20 µM.
`COc1cc(C(=O)N2CC3CN(C(=O)Cc4c[nH]c5cc(Cl)ccc45)CC(C(=O)NCc4ccc(C)nn4)C3C2)ccc1OC(C)C` (single isomer, unassigned) [I-262]: the IC50 at CDK2/Cyclin E1(14-475) [1] was > 10 µM. In addition, the GI50 in the assay with Kuramochi cells [3] (72 hours) was > 20 µM.
In the case of `CNC(=O)[C@H](CCCc1ccccc1)NC(=O)C1CN(C(=O)Cc2c[nH]c3cc(Cl)ccc23)CC2CN(C(=O)c3cc(-c4ccccc4)on3)CC21` (stereo partly drawn) [I-13], the IC50 is > 10 µM on CDK2/Cyclin E1(14-475) [1], 5 to 10 µM in the assay with Kuramochi cells [2] and > 100 µM against CDK2/Cyclin E1(14-475) [4].
Take `CNC(=O)[C@H](CCCc1ccccc1)NC(=O)C1CN(C(=O)Cc2c[nH]c3cc(Cl)ccc23)CC2CN(C(=O)c3cc(-c4ccccc4)[nH]n3)CC21` (stereo partly drawn) [I-19]: the IC50 was > 10 µM on CDK2/Cyclin E1(14-475) [1], 0.5 to 5 µM with Kuramochi cells [2] and ≤ 1 µM on CDK2/Cyclin E1(14-475) [4].
As for `CNC(=O)[C@@H](NC(=O)C1CN(C(=O)Cc2c[nH]c3cc(Cl)ccc23)CC2CN(C(=O)c3ccc(OC(C)C)c(OC)c3)CC21)[C@H](C)OCc1ccccc1` (stereo partly drawn) [I-106], the IC50 at CDK2/Cyclin E1(14-475) [1] is ≤ 0.5 µM; in the assay with Kuramochi cells [2], 0.5 to 5 µM. The molecule also yielded a GI50 with Kuramochi cells [3] (72 h) of 1 to 10 µM.
With `CNC(=O)[C@H](CCCc1ccccc1)NC(=O)C1CN(C(=O)Cc2c[nH]c3cccc(Cl)c23)CC2CN(C(=O)c3ccc(OC(C)C)c(OC)c3)CC21` (stereo partly drawn) [I-221], the IC50 is > 10 µM in the assay with Kuramochi cells [2] and > 100 µM on CDK2/Cyclin E1(14-475) [4].
Consider `CNC(=O)[C@@H](NC(=O)C1CN(C(=O)Cc2c[nH]c3cc(Cl)ccc23)CC2CN(C(=O)c3cc(-c4ccccc4)n[nH]3)CC21)[C@@H](C)OCC1CCCCC1` (stereo partly drawn) [I-251], for which the IC50 at CDK2/Cyclin E1(14-475) [1] is > 10 µM; with Kuramochi cells [2] it was 5 to 10 µM; at CDK2/Cyclin E1(14-475) [4], > 100 µM.
